Laboratory results as given in BindingDB's records for doi:10.1021/acs.jmedchem.1c00408 (Virginia Commonwealth University, 2021).

Tests used:
[1] = Inhibition of CCR5-mediated HIV-1 Bal entry in human GHOST CCR5 cells assessed as decrease in viral reverse transcriptase activity by measuring [3H]thymidine triphosphate incorporation measured after 60 to 90 mins by scintillation counting analysis
[2] = Inhibition of MOR-mediated HIV1 BaL01 infection in GFP-tagged human OPRM1 transfected TZM-bl cells co-expressing HIV1 - LTR assessed as inhibition of viral entry by measuring LTR-driven luciferase activity pretreated for 1 hr before infection measured after 2 to 3 days of infection
[3] = Inhibition of MOR-mediated HIV1 BaL01 infection in GFP-tagged human OPRM1 transfected TZM-bl cells co-expressing HIV1 - LTR assessed as inhibition of viral entry in presence of morphine by measuring LTR-driven luciferase activity pretreated for 1 hr before infection measured after 2 to 3 days of infection

**Q.** What does the source list for `CC(C)c1nnc(CCNC(=O)COCC(=O)NCCCCCCCNC(=O)COCC(=O)N[C@@H]2CC[C@@]3(O)[C@H]4Cc5ccc(O)c6c5[C@@]3(CCN4CC3CC3)[C@H]2O6)n1C1C[C@H]2CC[C@@H](C1)N2CC[C@H](NC(=O)C1CCC(F)(F)CC1)c1ccccc1` (some centres undefined)?
**A.** EC50 [1]: 93 nM; EC50 [2]: 368 nM; EC50 [3]: 247 nM

**Q.** With `Cc1nnc(C(C)C)n1C1C[C@H]2CC[C@@H](C1)N2CC[C@H](NC(=O)C1CCC(F)(F)CC1)c1ccc(NC(=O)COCC(=O)NCCCCCCCNC(=O)COCC(=O)N[C@@H]2CC[C@@]3(O)[C@H]4Cc5ccc(O)c6c5[C@@]3(CCN4CC3CC3)[C@H]2O6)cc1` (some centres undefined) as the compound, how does the EC50 [1] read?
**A.** > 100000 nM
